Measured values taken from US8389680B2, “Treatment of Aspergillus infections with alpha thymosin peptides” (SciClone Pharmaceuticals, Inc., priority 2003, dated 2013).

Experiments:
Assay type in all cases: cell-based
TLR4/CD14 = biological target: T1, TLR4/CD14 (Homo sapiens, UniProt O00206); assay: IL-8 production by TLR4/CD14-transfected HEK293 cells
T1 construct: expressed in transfected cells; host or cells: HEK293
Procedure: The human embryonic kidney cell line HEK293, wild type or stably transfected with human TLR2, TLR9 and TLR4/CD1427 were cultured in low glucose Dulbecco's modified Eagle's medium supplemented with 10% FCS, HEPES ([…]), L-glutamine ([…]), and gentamycin (50 microgram/ml). Transfectants were additionally supplemented with puromycin (100 microgram/ml). For stimulation experiments, cells were cultured at a density of 3 to 5×10^5 cells/wells in 12-well tissue culture plates overnight. Cells were washed and stimulated with 100 ng/ml TA1 either alone or together with TLR ligands for 5 h before the assessment of IL-8 production in the supernatants.
The levels of TNF-alpha, IL-10, IL-12 p70, IFN-alpha and IL-8 in culture supernatants were determined by Kit ELISAs. The detection limits (pg/ml) of the assays were <3 (human) and <32 (murine) for TNF-alpha, <12 (murine) and <5 (human) for IL-10, <16 (murine) and <3 (human) for IL-12 p70 and <25 (human) IL-8. For human IFN-alpha <3 ng/ml. For enumeration of cytokine-producing cells, an ELISPOT assay was used on purified CD4^+ T cells and DCs from lungs.

murine DCs [1] = assay: RT-PCR of TLR expression on DCs
Procedure: Synthesis and PCR of cDNA were performed with forward and reverse PCR primers and the cycles used for murine and human TLRs and HPRT. The synthesized PCR products were separated by electrophoresis on 2% agarose gel and visualized by ethidium bromide staining.

murine DCs [2] = assay: IL-12 p70 and IL-10 production by murine DCs in response to microbial TLR ligands
Procedure: Zymosan was from Saccharomyces cerevisiae, lipoteichoic acid (LTA) from Staphylococcus aureus, and lipopolysaccharide (LPS) from Salmonella Minnesota Re 595. The CpG oligonucleotides 1826 and 2006 were proven immunostimulatory sequences. For phagocytosis, DCs were pre-exposed to 100 ng/ml TA1 for 60 minutes and subsequently incubated at 37° C. with Aspergillus conidia for an additional 60 minutes. The percentage of internalization was calculated and photographs were taken. In assessing functional maturation and cytokine determination, purified DCs were resuspended in Iscove's medium (with no serum but with polymixin B, to avoid non-specific activation by serum components and endotoxin) and pulsed with 100 ng/ml TA1 for 24 hours either alone or together with TLR ligands or unopsonized Aspergillus conidia. The levels of TNF-alpha, IL-10, IL-12 p70, IFN-alpha and IL-8 in culture supernatants were determined by Kit ELISAs. The detection limits (pg/ml) of the assays were <3 (human) and <32 (murine) for TNF-alpha, <12 (murine) and <5 (human) for IL-10, <16 (murine) and <3 (human) for IL-12 p70 and <25 (human) IL-8. For human IFN-alpha <3 ng/ml. For enumeration of cytokine-producing cells, an ELISPOT assay was used on purified CD4^+ T cells and DCs from lungs.

[3] = combined exposure to conidia and peptide
[4] = after stimulation with CpG (TLR9)
[5] = after stimulation with LTA (TLR2)
[6] = after stimulation with zymosan (TLR2)

T1 sequence (O00206 24-839): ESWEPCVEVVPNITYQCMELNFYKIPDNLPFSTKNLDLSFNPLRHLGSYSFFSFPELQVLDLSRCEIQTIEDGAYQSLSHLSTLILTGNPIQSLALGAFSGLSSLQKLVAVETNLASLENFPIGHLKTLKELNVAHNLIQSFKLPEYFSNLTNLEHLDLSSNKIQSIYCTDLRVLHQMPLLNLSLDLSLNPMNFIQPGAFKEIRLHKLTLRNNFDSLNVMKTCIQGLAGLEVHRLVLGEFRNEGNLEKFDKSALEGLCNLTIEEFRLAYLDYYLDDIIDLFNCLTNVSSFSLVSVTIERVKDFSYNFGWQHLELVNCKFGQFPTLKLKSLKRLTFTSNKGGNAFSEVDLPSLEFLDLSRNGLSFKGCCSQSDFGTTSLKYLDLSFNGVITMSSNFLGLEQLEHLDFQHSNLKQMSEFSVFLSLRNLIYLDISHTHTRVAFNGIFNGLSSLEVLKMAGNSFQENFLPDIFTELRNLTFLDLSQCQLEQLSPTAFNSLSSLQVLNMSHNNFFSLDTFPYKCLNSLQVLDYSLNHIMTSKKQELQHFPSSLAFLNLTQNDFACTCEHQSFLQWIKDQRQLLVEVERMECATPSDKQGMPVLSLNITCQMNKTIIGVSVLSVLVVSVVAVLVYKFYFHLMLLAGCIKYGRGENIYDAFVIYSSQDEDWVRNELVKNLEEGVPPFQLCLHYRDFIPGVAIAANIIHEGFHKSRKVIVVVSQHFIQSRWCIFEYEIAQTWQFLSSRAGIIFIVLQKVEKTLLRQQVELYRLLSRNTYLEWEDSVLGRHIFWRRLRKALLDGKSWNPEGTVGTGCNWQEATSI

In the case of “Ac-Ser-Asp-Ala-Ala-Val-Asp-Thr-Ser-Ser-Glu-Ile-Thr-Thr-Lys-Asp-Leu-Lys-Glu-Lys-Lys-Glu-Val-Glu-Glu-Ala-Glu-Asn-O (Ac-SDAAVDTSSEITTKDLKEKKEVEEAEN-OH) [TA1, naturally occurring thymic peptide]”, the “production of IL-8” value (TLR4/CD14; TA1 alone) is reported as “did not induce”, the “production of IL-8” value (TLR4/CD14; in response to the TLR4 ligand LPS) is reported as “did not induce” and the “expression of TLR5” value (murine DCs [1]; combined exposure to conidia and TA1) is reported as “inhibited”. The “expression of TLR2” value (murine DCs [1]; [3]) was “still activated”, the “expression of TLR9” value (murine DCs [1]; [3]) was “still activated” and the “expression of TLR2” value (murine DCs [1]; peptide alone) was “strongly activates”. For the same substance, the “expression of TLR5” value (murine DCs [1]; peptide alone) was “strongly activates”, the “expression of TLR9” value (murine DCs [1]; peptide alone) was “strongly activates” and the “production of IL-10” value (murine DCs [2]; [4]) was “decreases”. The “production of IL-12 p70” value (murine DCs [2]; [4]) was “significantly increased”, the “production of IL-10” value (murine DCs [2]; [5]) was “decreases” and the “production of IL-12 p70” value (murine DCs [2]; [5]) was “significantly increased”. The “production of IL-10” value (murine DCs [2]; [6]) was “decreases”, the “production of IL-12 p70” value (murine DCs [2]; [6]) was “significantly increased” and the “cytokine production (IL-12 p70 and IL-10)” value (murine DCs [2]; in response to LPS (TLR4)) was “did not affect”. For the same substance, the “cytokine production (IL-12 p70 and IL-10)” value (murine DCs [2]; in response to Poly(I:C)) was “did not affect”.
